In the supplement of paper PMC10307832:

How the values were obtained:
Assay in all cases: relative viability (nuclei count vs DMSO), 5 days (fraction); higher = more cells survive
[1] = compound: CN(C/C=C/C1=CC=C(C=C1)Cl)CC2=CC=CC=C2N(CCO)S(=O)(=O)C3=CC=C(C=C3)OC [KN-93] + Nc1nc2[nH]cc(CCc3ccc(C(=O)N[C@@H](CCC(=O)O)C(=O)O)cc3)c2c(=O)[nH]1 [Pemetrexed] (partner 0.2 µM)
In short: (§1)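 Relative viability was taken as the ratio of nuclei in treated wells to nuclei in vehicle wells. Lung cancer cell lines in 1536-well plates received compounds by pin tool one day after seeding, either one drug alone or a fixed anchor-drug dose plus five library-drug doses (not always all listed) in √10 steps. Nuclei were counted on 4× images after 5 days of treatment, and values are medians of duplicate plates.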

[2] = compound: CN(C/C=C/C1=CC=C(C=C1)Cl)CC2=CC=CC=C2N(CCO)S(=O)(=O)C3=CC=C(C=C3)OC [KN-93] + N=C(N)NC(=N)NCCc1ccccc1 [Phenformin] (partner 250 µM)
In short: as §1

[3] = compound: CN(C/C=C/C1=CC=C(C=C1)Cl)CC2=CC=CC=C2N(CCO)S(=O)(=O)C3=CC=C(C=C3)OC [KN-93] + CC(=O)c1c(C)c2cnc(Nc3ccc(N4CCNCC4)cn3)nc2n(C2CCCC2)c1=O [Palbociclib] (partner 0.5 µM)
In short: as §1

[4] = compound: CN(C/C=C/C1=CC=C(C=C1)Cl)CC2=CC=CC=C2N(CCO)S(=O)(=O)C3=CC=C(C=C3)OC [KN-93] + O=C(c1cc(Cc2n[nH]c(=O)c3ccccc23)ccc1F)N1CCN(C(=O)C2CC2)CC1 [Olaparib] (partner 8 µM)
In short: as §1

[5] = compound: CN(C/C=C/C1=CC=C(C=C1)Cl)CC2=CC=CC=C2N(CCO)S(=O)(=O)C3=CC=C(C=C3)OC [KN-93] + CS(=O)(=O)CCNCc1ccc(-c2ccc3ncnc(Nc4ccc(OCc5cccc(F)c5)c(Cl)c4)c3c2)o1 [Lapatinib] (partner 2 µM)
In short: as §1

Row | Cell Line | relative viability ([1]; first compound 0.08 µM) | relative viability ([1]; first compound 0.253 µM) | relative viability ([1]; first compound 2.53 µM) | relative viability ([1]; first compound 8 µM) | relative viability ([2]; first compound 0.08 µM) | relative viability ([2]; first compound 0.253 µM) | relative viability ([2]; first compound 2.53 µM) | relative viability ([2]; first compound 8 µM) | relative viability ([3]; first compound 0.08 µM) | relative viability ([3]; first compound 0.253 µM) | relative viability ([3]; first compound 2.53 µM) | relative viability ([3]; first compound 8 µM) | relative viability ([4]; first compound 0.08 µM) | relative viability ([4]; first compound 0.253 µM) | relative viability ([4]; first compound 2.53 µM) | relative viability ([4]; first compound 8 µM) | relative viability ([5]; first compound 0.08 µM) | relative viability ([5]; first compound 0.253 µM) | relative viability ([5]; first compound 2.53 µM) | relative viability ([5]; first compound 8 µM)
1 | NCI-H1395 | 0.972 | 0.926 | 0.86 | 0.489 | 0.477 | 0.449 | 0.48 | 0.449 | 0.602 | 0.69 | 0.598 | 0.478 | 0.452 | 0.48 | 0.424 | 0.419 | 1.63 | 1.11 | 1.04 | 0.679
2 | NCI-H1437 | 0.317 | 0.312 | 0.247 | 0.19 | 0.396 | 0.292 | 0.352 | 0.31 | 0.325 | 0.285 | 0.271 | 0.294 | 0.626 | 0.683 | 0.564 | 0.456 | 0.632 | 0.963 | 0.875 | 0.425
3 | NCI-H1650 | 0.338 | 0.427 | 0.372 | 0.34 | 0.468 | 0.417 | 0.571 | 0.25 | 0.377 | 0.323 | 0.391 | 0.269 | 0.702 | 0.428 | 0.854 | 0.608 | 0.758 | 0.754 | 0.952 | 0.482
4 | NCI-H1651 | 0.611 | 0.701 | 0.567 | 0.511 | 0.369 | 0.44 | 0.369 | 0.321 | 0.511 | 0.536 | 0.582 | 0.488 | 0.203 | 0.178 | 0.199 | 0.179 | 0.732 | 1.02 | 0.914 | 0.664
5 | NCI-H1666 | 0.844 | 1 | 0.818 | 0.821 | 0.611 | 0.772 | 0.656 | 0.576 | 0.639 | 0.656 | 0.669 | 0.622 | 0.726 | 0.716 | 0.702 | 0.762 | 0.747 | 0.638 | 0.679 | 0.532
6 | NCI-H1734 | 0.457 | 0.478 | 0.399 | 0.417 | 0.363 | 0.446 | 0.381 | 0.411 | 0.345 | 0.396 | 0.335 | 0.263 | 0.496 | 0.677 | 0.611 | 0.518 | 1.15 | 1.1 | 1.6 | 0.88
7 | NCI-H1755 | 0.455 | 0.432 | 0.453 | 0.44 | 0.699 | 0.608 | 0.674 | 0.605 | 0.478 | 0.462 | 0.45 | 0.455 | 0.806 | 0.804 | 0.909 | 0.827 | 1.02 | 1.26 | 1.04 | 0.561
8 | NCI-H1792 | 0.605 | 0.909 | 0.971 | 0.513 | 0.177 | – | 0.25 | 0.258 | 0.401 | 0.649 | 0.796 | 0.605 | 0.351 | 0.312 | 0.392 | 0.311 | – | 0.904 | 1.67 | 0.818
